{"source": "patent US20120190691A1", "about": "“PHARMACEUTICAL COMPOSITIONS FOR TREATMENT OF RESPIRATORY AND INFLAMMATORY DISEASES” (priority 2010, published 2012)", "tested_on": "ovalbumin-induced bronchospasm", "assay": "Ovalbumin-induced bronchospasm (modified Konzett-Rössler) in sensitized anaesthetized guinea pigs", "assay_type": "in vivo", "procedure": "Male and female Dunkin-Harley guinea pigs were obtained from the Experimental Animal Breeding Centre of Harlan Winkelmann (Germany). After fasting overnight, but with free access to drinking water, animals with body weight of 400-500 g were used.\nBronchospasm was recorded with a modified version of the method of Konzett-Röβler (described by Walland et al, in “Compensation of muscarinic bronchial effects of talsaclidine by concomitant sympathetic activation in guinea pigs”, European Journal of Pharmacology, Volume 330, Issue 2-3, 9 Jul. 1997, Pages 213-219). The animals were ventilated by means of a piston pump (starling ventilator, Hugo Sachs Elektronik, Germany) at a stroke volume of 1 ml/100 g body weight and at a rate of 60 strokes per min. The tubing which connected the tracheal cannula with the ventilator was provided with a branch leading to the bronchospasm transducer (bronchospasm transducer 7020, Ugo Basile, Italy). The air flow measurement is based on the hot wire anemometer principle. Any air flow will reduce the temperature of the wire, thereby decreasing its resistance in proportion of the flow. As the wire element is one arm of a Weaststone bridge, variation in resistance generate a proportional voltage output which feeds the amplifier/recording system (Notocord-hem, Notocord, France). Blood pressure and heart rate are monitored from a carotid artery in order to check the anesthesia and the variability of the preparation.\nGuinea pigs were sensitized on 2 consecutive days with 20 μg ovalbumin (OVA) (Sigma, St. Louis, Mo.) and 20 mg Al(OH)3 in 0.5 ml saline, which were administered subcutaneously. Experiments, which included OVA challenge, were conducted 2 weeks after sensitization. Approximately 1 hour before OVA challenge, the animals were anaesthetized with an intraperitoneal injection of 50 mg/kg pentobarbital. Anesthesia was prolonged by intravenous infusion of pentobarbital (15 mg/kg/h) via the jugular vein. A tracheal cannula was introduced after tracheotomy for artificial ventilation. The internal jugular vein was cannulated for drug injection while the left carotid artery was cannulated for measuring blood pressure and heart rate. 30 minutes after the beginning of air flow and blood pressure measurements, bronchoconstriction is triggered by an OVA challenge given at a fixed dose of 50 μg/kg inhaled.\nThe test compounds or combinations of compounds were administered orally 2 hours before the OVA challenge.\nThe control group comprises 12 guinea-pigs, test compounds comprise 2 to 4 guinea-pigs.\nBronchoprotection of the drug (i.e. inhibition of OVA broncho-constriction) is expressed as a percentage of inhibition of the increase in overflow induced by OVA in the control animals.", "key": {"[1]": {"settings": "Desloratidine 2.0 mg/kg p.o. alone (CRTH2 antagonist (1) 0.0)"}, "[2]": {"settings": "Fexofenadine 0.5 mg/kg p.o. alone (CRTH2 antagonist (1) 0.0)"}, "[3]": {"settings": "Pyrilamine 2.0 mg/kg p.o. alone (CRTH2 antagonist (1) 0.0)"}}}
{"smiles": "CN(C)c1nc(Cc2ccc(NC(=O)c3ccc(C(F)(F)F)cc3)cc2)nc(N(C)C)c1CC(=O)O", "note": "[CRTH2 antagonist (1), [4,6-bis(dimethylamino)-2-(4-(4-(trifluoromethyl)benzamido)benzyl)pyrimidin-5-yl]-acetic acid]", "values": [{"measurement": "overflow", "setting": "CRTH2 antagonist (1) 0.01 mg/kg p.o. alone, 2 hours before OVA challenge", "value": 63, "unit": "mL"}, {"measurement": "overflow", "setting": "CRTH2 antagonist (1) 0.03 mg/kg p.o. alone, 2 hours before OVA challenge", "value": 65, "unit": "mL"}, {"measurement": "overflow", "setting": "CRTH2 antagonist (1) 0.10 mg/kg p.o. alone, 2 hours before OVA challenge", "value": 69, "unit": "mL"}, {"measurement": "overflow", "setting": "CRTH2 antagonist (1) 0.30 mg/kg p.o. alone, 2 hours before OVA challenge", "value": 60, "unit": "mL"}, {"measurement": "overflow", "setting": "CRTH2 antagonist (1) 1.00 mg/kg p.o. alone, 2 hours before OVA challenge", "value": 65, "unit": "mL"}, {"measurement": "overflow", "setting": "CRTH2 antagonist (1) 3.00 mg/kg p.o. alone, 2 hours before OVA challenge", "value": 61, "unit": "mL"}, {"measurement": "overflow", "setting": "CRTH2 antagonist (1) 10.00 mg/kg p.o. alone, 2 hours before OVA challenge", "value": 65, "unit": "mL"}, {"measurement": "effect in this assay by itself", "setting": "alone, conclusion", "value": "no effect"}, {"measurement": "effect by itself on the ovalbumin-induced bronchospasm", "setting": "up to 10 mg/kg p.o., alone", "value": "no effect"}]}
{"smiles": "Clc1ccc2c(c1)CCc1cccnc1C2=C1CCNCC1", "note": "[Desloratidine, reference compound]", "values": [{"measurement": "bronchoprotection", "setting": "[1]", "value": 43, "unit": "%"}, {"measurement": "overflow", "setting": "[1]", "value": 34, "unit": "mL"}]}
{"smiles": "CC(C)(C(=O)O)c1ccc(C(O)CCCN2CCC(C(O)(c3ccccc3)c3ccccc3)CC2)cc1", "note": "(stereo not drawn) [Fexofenadine, reference compound]", "values": [{"measurement": "bronchoprotection", "setting": "[2]", "value": 35, "unit": "%"}, {"measurement": "overflow", "setting": "[2]", "value": 39, "unit": "mL"}]}
{"smiles": "COc1ccc(CN(CCN(C)C)c2ccccn2)cc1", "note": "[Pyrilamine, reference compound]", "values": [{"measurement": "bronchoprotection", "setting": "[3]", "value": 45, "unit": "%"}, {"measurement": "overflow", "setting": "[3]", "value": 33, "unit": "mL"}]}
